pEC50: −log10 of the molar value.
These molecules were tested on THP-1 viability, CellTiter-Glo luminescence, 72 h (assay: PubChem AID 2252).
In the case of `O=C(CNC(=O)c1ccccc1)N/N=C/c1ccc([N+](=O)[O-])s1`, the pEC50 was 4.77.
Molecule `O=C(N/N=C/c1c[nH]c2ccccc12)c1cc2ccccc2o1` has a pEC50 of 4.67.
Work on `CC(C)(C)c1ccc(OCCCNC2CCCC2)cc1` yielded a pEC50 of 4.70.
Work on `CC(Oc1ccc(Br)cc1)c1nc2c3ccccc3nc(=S)n2[nH]1` (stereo unspecified) yielded a pEC50 of 4.75.
`CN(C)CCCN(C(=O)COc1ccccc1)c1nc2ccc(Cl)cc2s1` was tested, and the pEC50 was 4.33.
With `CC[C@H](C)[C@@H](CN[C@H](C)CNC)NCCC(c1ccccc1)c1ccccc1` the pEC50 was 5.15.
Molecule `O=C(O)CC/C(=C\c1ccccc1[N+](=O)[O-])c1nc2ccccc2s1` has a pEC50 of over 7.00.
`Oc1ccc(CN2CCCc3ccccc32)c2cccnc12` showed a pEC50 of 5.48.
For `c1ccc(CN2CCC(Nc3nc(-c4cccs4)nc4ccccc34)CC2)cc1`, the pEC50 was 5.10.
`CCCCCNc1nc(N2CCCC2)c2c(c1C#N)CCN(C)C2` gave a pEC50 of 4.63.
In the case of `Cc1cc(=O)[nH]c(-n2nc(C)cc2C)n1`, the pEC50 was 4.56.
`O=C(NC(=S)NNC(=O)c1ccco1)c1ccc(Br)cc1` was tested, and the pEC50 was 4.71.
`Cc1ccc(C(=O)NNC(=S)NC(=O)COc2ccccc2)cc1` was tested, and the pEC50 was 4.82.
In the case of `Cc1ccc(-c2c[n+](CC(=O)Nc3nc(-c4ccccc4)cs3)c3n2CCC3)cc1`, the pEC50 was 4.87.
For `CCCCCCCCCCOC(=O)Cn1c(COc2ccc(C)cc2)[n+](C)c2ccccc21`, the pEC50 was 5.63.
For `Clc1ccc(Nc2ccc(NCc3ccccc3)nn2)cc1`, the pEC50 was 4.65.
`Oc1c(Br)cc(Br)cc1C=Nc1cccc2ncccc12` showed a pEC50 of 4.89.
With `CC(C)N1CCc2c(sc(NC(=O)c3ccc(S(=O)(=O)N4CCc5ccccc54)cc3)c2C(N)=O)C1` the pEC50 was 5.07.
`CCN1CCN(Cc2ccc(NC(=O)c3ccc(C)c(NC(=O)c4c[nH]c5cc(C(F)(F)F)ccc5c4=O)c3)cc2C(F)(F)F)CC1` was tested, and the pEC50 was 5.69.
`CCCCOc1ccc(C(=O)NNC(=S)NC(=O)CC)cc1` was tested, and the pEC50 was 5.48.
Molecule `Cc1cc2ncn(/N=C/c3ccc([N+](=O)[O-])o3)c2cc1C` has a pEC50 of 4.31.
Work on `CCCCn1c(NS(=O)(=O)c2ccccc2)c(C(=O)OCC)c2nc3ccccc3nc21` yielded a pEC50 of 4.70.
Work on `CN(C)c1ccc(Nc2nc(N)c3ccccc3n2)cc1` yielded a pEC50 of 5.22.
In the case of `COc1ccc(CNCCc2cccc(F)c2)c2ccccc12`, the pEC50 was 4.89.
`CSc1nc2cc(Oc3cccc(Cl)c3Cl)c(Cl)cc2[nH]1` showed a pEC50 of 4.36.
With `COC(=O)c1cc(CSC(=N)N)ccc1OCCC(C)C` the pEC50 was 4.83.
Molecule `O/N=C/C1=C(Cl)c2ccccc2CC1` has a pEC50 of over 7.00.
`Cc1ccc(S(=O)(=O)CCC(=O)c2ccc(O)cc2O)cc1` was tested, and the pEC50 was 4.80.
For `CC(=O)NC(c1ccc(Cl)cc1Cl)c1ccc2cccnc2c1O` (stereo unspecified), the pEC50 was 5.14.
Molecule `Cc1ccc(-n2c(Cc3noc4ccccc34)n[nH]c2=S)cc1` has a pEC50 of over 7.00.
`c1ccc2c(c1)C(=NC1CCCCC1)NC2=NC1CCCCC1` was tested, and the pEC50 was 5.37.
With `COc1ccc(Nc2nc(NCC3CCCO3)c3ccccc3n2)c(OC)c1` (stereo unspecified) the pEC50 was 5.03.
`NC(N)=N/N=C/c1ccc(OCc2ccc(Cl)cc2Cl)cc1` was tested, and the pEC50 was 5.23.
With `COC12C(COC(N)=O)C3=C(C(=O)C(C)=C(N)C3=O)N1CC1C2N1C` (stereo unspecified) the pEC50 was 4.94.
For `CCCCCCCCCn1c2c(c(=N)c3c1CCC3)CCC2`, the pEC50 was 6.28.
Work on `COc1ccc(CNc2ncnc3c2[nH]c2ccccc23)cc1` yielded a pEC50 of 4.41.
`Cc1cc(C)c2nc(C)cc(N/N=C/c3ccc(O)cc3)c2c1` was tested, and the pEC50 was 5.72.
With `CCOc1cccc(/C=N/NC(=O)c2cc(C3CC3)[nH]n2)c1O` the pEC50 was 5.26.
Molecule `COc1ccc(/C=N/Nc2cc(C)nc3ccc(Br)cc23)cc1` has a pEC50 of 5.38.
For `Cc1ccc2c(c1)c1c(n2CC(O)CNC2CCCCC2)CCCC1` (stereo unspecified), the pEC50 was 5.11.
Work on `COc1ccc(C(=O)C[n+]2cc(Br)cc3ccccc32)cc1[N+](=O)[O-]` yielded a pEC50 of over 7.00.
For `O=C(CCN1CCOCC1)c1ccc(Br)cc1`, the pEC50 was 4.36.
`C#CCOCCOCCOCCNc1nc(N2CCN(C(=O)CCCCCCCCCCNC(=O)[C@@H](CCSC)n3cc(CCO)nn3)CC2)nc(N2CCN(C(=O)CCCCCCCCCCNC(=O)[C@H]([C@@H](C)CC)n3cc(CCCCN=C(N)N)nn3)CC2)n1` gave a pEC50 of 5.01.
`COc1ccc(CCN2CCC(Nc3nc4ccccc4n3Cc3ccc(F)cc3)CC2)cc1` gave a pEC50 of 5.42.
With `C#CCOCCOCCOCCNc1nc(N2CCN(C(=O)CCCCCCCCCCNC(=O)[C@H](CCCCN)n3cc(C[C@@H](C)CC)nn3)CC2)nc(N2CCN(C(=O)CCCCCCCCCCNC(=O)[C@@H]([C@H](C)O)n3cc(C)nn3)CC2)n1` the pEC50 was 5.21.
`Nc1nc2ccccc2n1CCOc1ccccc1Cl` gave a pEC50 of 4.78.
`CN1CCN(C2Cc3cc(F)ccc3Sc3ccc(Cl)cc32)CC1` (stereo unspecified) showed a pEC50 of 4.83.
`COc1cccc(/C=N\NC(=O)Cn2nnc3ccccc32)c1O` showed a pEC50 of 4.84.
For `CC(Nc1nc(N2CCCCC2)nc2ccccc12)c1ccccc1` (stereo unspecified), the pEC50 was 5.15.
For `C=CCN(c1ccccc1)S(=O)(=O)c1cccc2cccnc12`, the pEC50 was 4.31.
In the case of `OCCN1CCN(CCCN2c3ccccc3Sc3ccc(C(F)(F)F)cc32)CC1`, the pEC50 was 4.90.
With `O=C1c2ccc3c4c(ccc(c24)C(=O)N1c1cccc(O)c1)C(=O)N(c1cccc(O)c1)C3=O` the pEC50 was 5.56.
With `C#CCOCCOCCOCCNc1nc(N2CCN(C(=O)CCCCCCCCCCNC(=O)[C@H](CCCCN)n3cc(C)nn3)CC2)nc(N2CCN(C(=O)CCCCCCCCCCNC(=O)[C@@H]([C@H](C)CC)n3cc(CCCCCN)nn3)CC2)n1` the pEC50 was 4.90.
For `CCCCCCCCCCCCCCCC[N+](C)(C)C`, the pEC50 was 5.84.
Work on `CC[C@H]1OC(=O)C[C@@H](O)[C@H](C)[C@@H](O[C@@H]2O[C@H](C)C[C@H](N(C)C)[C@H]2O)[C@@H](CC=O)C[C@@H](C)C(=O)C=C[C@]2(C)O[C@H]2[C@@H]1C` yielded a pEC50 of 4.91.
`[O-][n+]1cccc2c(Br)cc(Br)c(O)c21` gave a pEC50 of 4.61.

Reference: PubChem BioAssay AID2252 (Southern Research Specialized Biocontainment Screening …, 2010)
